Results taken from the supplement of paper PMC10307832.

Tests used:
Test in all cases: relative viability (nuclei count vs DMSO), 5 days (fraction); higher = more cells survive
201T = test system: 201T
Outline: (§1)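 Relative viability equals treated-well nuclei counts divided by vehicle-well nuclei counts. Counts came from 4× images of lung cancer cell lines grown in 1536-well plates for 5 days after pin-tool dosing on the day after seeding. Dosing used one drug alone or a fixed anchor-drug dose plus five library-drug doses (not always all listed) in √10 steps, and values are medians of duplicate plates.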

HCC-78 = test system: HCC-78
Outline: as §1

HARA = test system: HARA
Outline: as §1

NCI-H2023 = test system: NCI-H2023
Outline: as §1

NCI-H2009 = test system: NCI-H2009
Outline: as §1

NCI-H460 = test system: NCI-H460
Outline: as §1

NCI-H1993 = test system: NCI-H1993
Outline: as §1

LCLC-97TM1 = test system: LCLC-97TM1
Outline: as §1

HCC-15 = test system: HCC-15
Outline: as §1

LCLC-103H = test system: LCLC-103H
Outline: as §1

HCC-44 = test system: HCC-44
Outline: as §1

RERF-LC-KJ = test system: RERF-LC-KJ
Outline: as §1

A-427 = test system: A-427
Outline: as §1

LOU-NH91 = test system: LOU-NH91
Outline: as §1

NCI-H1650 = test system: NCI-H1650
Outline: as §1

SW 1573 = test system: SW 1573
Outline: as §1

ChaGo-K-1 = test system: ChaGo-K-1
Outline: as §1

NCI-H1734 = test system: NCI-H1734
Outline: as §1

NCI-H2126 = test system: NCI-H2126
Outline: as §1

NCI-H650 = test system: NCI-H650
Outline: as §1

HCC-366 = test system: HCC-366
Outline: as §1

COR-L23 = test system: COR-L23
Outline: as §1

NCI-H441 = test system: NCI-H441
Outline: as §1

Which results are given for `O=c1[nH]c2ccccc2n1C1CCN(CCCC(c2ccc(F)cc2)c2ccc(F)cc2)CC1` [Pimozide] + N=C(N)NC(=N)NCCc1ccccc1 [Phenformin] (partner 250 µM)?
relative viability (201T; first compound 0.08 µM): 0.467; relative viability (201T; first compound 0.253 µM): 0.404; relative viability (201T; first compound 0.8 µM): 0.444; relative viability (201T; first compound 2.53 µM): 0.379; relative viability (201T; first compound 8 µM): 0.44; relative viability (HCC-78; first compound 0.08 µM): 0.781; relative viability (HCC-78; first compound 0.8 µM): 0.628; relative viability (HCC-78; first compound 2.53 µM): 0.635; relative viability (HCC-78; first compound 8 µM): 0.678; relative viability (HARA; first compound 0.253 µM): 0.503; relative viability (HARA; first compound 0.8 µM): 0.405; relative viability (HARA; first compound 2.53 µM): 0.423; relative viability (HARA; first compound 8 µM): 0.431; relative viability (NCI-H2023; first compound 0.08 µM): 0.41; relative viability (NCI-H2023; first compound 0.253 µM): 0.403; relative viability (NCI-H2023; first compound 0.8 µM): 0.397; relative viability (NCI-H2023; first compound 2.53 µM): 0.385; relative viability (NCI-H2023; first compound 8 µM): 0.354; relative viability (NCI-H2009; first compound 0.08 µM): 0.476; relative viability (NCI-H2009; first compound 0.253 µM): 0.479; relative viability (NCI-H2009; first compound 0.8 µM): 0.507; relative viability (NCI-H2009; first compound 2.53 µM): 0.46; relative viability (NCI-H2009; first compound 8 µM): 0.391; relative viability (NCI-H460; first compound 0.08 µM): 0.556; relative viability (NCI-H460; first compound 0.253 µM): 0.507; relative viability (NCI-H460; first compound 0.8 µM): 0.501; relative viability (NCI-H460; first compound 2.53 µM): 0.516; relative viability (NCI-H460; first compound 8 µM): 0.492; relative viability (NCI-H1993; first compound 0.08 µM): 0.477; relative viability (NCI-H1993; first compound 0.253 µM): 0.509; relative viability (NCI-H1993; first compound 0.8 µM): 0.455; relative viability (NCI-H1993; first compound 2.53 µM): 0.522; relative viability (NCI-H1993; first compound 8 µM): 0.49; relative viability (LCLC-97TM1; first compound 0.08 µM): 0.487; relative viability (LCLC-97TM1; first compound 0.253 µM): 0.403; relative viability (LCLC-97TM1; first compound 0.8 µM): 0.356; relative viability (LCLC-97TM1; first compound 2.53 µM): 0.418; relative viability (LCLC-97TM1; first compound 8 µM): 0.413; relative viability (HCC-15; first compound 0.08 µM): 0.511; relative viability (HCC-15; first compound 0.253 µM): 0.431; relative viability (HCC-15; first compound 0.8 µM): 0.432; relative viability (HCC-15; first compound 2.53 µM): 0.433; relative viability (HCC-15; first compound 8 µM): 0.448; relative viability (LCLC-103H; first compound 0.08 µM): 0.327; relative viability (LCLC-103H; first compound 0.253 µM): 0.324; relative viability (LCLC-103H; first compound 0.8 µM): 0.317; relative viability (LCLC-103H; first compound 2.53 µM): 0.332; relative viability (LCLC-103H; first compound 8 µM): 0.364; relative viability (HCC-44; first compound 0.08 µM): 0.253; relative viability (HCC-44; first compound 0.253 µM): 0.206; relative viability (HCC-44; first compound 0.8 µM): 0.138; relative viability (HCC-44; first compound 2.53 µM): 0.142; relative viability (HCC-44; first compound 8 µM): 0.278; relative viability (RERF-LC-KJ; first compound 0.08 µM): 0.416; relative viability (RERF-LC-KJ; first compound 0.253 µM): 0.467; relative viability (RERF-LC-KJ; first compound 0.8 µM): 0.409; relative viability (RERF-LC-KJ; first compound 2.53 µM): 0.264; relative viability (RERF-LC-KJ; first compound 8 µM): 0.401; relative viability (A-427; first compound 0.08 µM): 0.368; relative viability (A-427; first compound 0.253 µM): 0.361; relative viability (A-427; first compound 0.8 µM): 0.36; relative viability (A-427; first compound 2.53 µM): 0.238; relative viability (A-427; first compound 8 µM): 0.26; relative viability (LOU-NH91; first compound 0.08 µM): 0.43; relative viability (LOU-NH91; first compound 0.253 µM): 0.702; relative viability (LOU-NH91; first compound 0.8 µM): 0.677; relative viability (LOU-NH91; first compound 2.53 µM): 0.79; relative viability (LOU-NH91; first compound 8 µM): 0.581; relative viability (NCI-H1650; first compound 0.08 µM): 0.378; relative viability (NCI-H1650; first compound 0.253 µM): 0.45; relative viability (NCI-H1650; first compound 0.8 µM): 0.495; relative viability (NCI-H1650; first compound 2.53 µM): 0.418; relative viability (NCI-H1650; first compound 8 µM): 0.306; relative viability (SW 1573; first compound 0.08 µM): 0.348; relative viability (SW 1573; first compound 0.253 µM): 0.309; relative viability (SW 1573; first compound 0.8 µM): 0.341; relative viability (SW 1573; first compound 2.53 µM): 0.377; relative viability (SW 1573; first compound 8 µM): 0.388; relative viability (ChaGo-K-1; first compound 0.08 µM): 0.565; relative viability (ChaGo-K-1; first compound 0.253 µM): 0.529; relative viability (ChaGo-K-1; first compound 0.8 µM): 0.461; relative viability (ChaGo-K-1; first compound 2.53 µM): 0.458; relative viability (ChaGo-K-1; first compound 8 µM): 0.399; relative viability (NCI-H1734; first compound 0.08 µM): 0.408; relative viability (NCI-H1734; first compound 0.253 µM): 0.366; relative viability (NCI-H1734; first compound 2.53 µM): 0.373; relative viability (NCI-H1734; first compound 8 µM): 0.426; relative viability (NCI-H2126; first compound 0.08 µM): 0.513; relative viability (NCI-H2126; first compound 0.253 µM): 0.519; relative viability (NCI-H2126; first compound 0.8 µM): 0.464; relative viability (NCI-H2126; first compound 2.53 µM): 0.525; relative viability (NCI-H2126; first compound 8 µM): 0.584; relative viability (NCI-H650; first compound 0.08 µM): 0.445; relative viability (NCI-H650; first compound 0.253 µM): 0.452; relative viability (NCI-H650; first compound 0.8 µM): 0.417; relative viability (NCI-H650; first compound 2.53 µM): 0.467; relative viability (NCI-H650; first compound 8 µM): 0.457; relative viability (HCC-366; first compound 0.08 µM): 0.664; relative viability (HCC-366; first compound 0.253 µM): 0.609; relative viability (HCC-366; first compound 0.8 µM): 0.528; relative viability (HCC-366; first compound 2.53 µM): 0.535; relative viability (HCC-366; first compound 8 µM): 0.469; relative viability (COR-L23; first compound 0.08 µM): 0.455; relative viability (COR-L23; first compound 0.253 µM): 0.479; relative viability (COR-L23; first compound 0.8 µM): 0.407; relative viability (COR-L23; first compound 2.53 µM): 0.456; relative viability (COR-L23; first compound 8 µM): 0.49; relative viability (NCI-H441; first compound 0.08 µM): 0.96; relative viability (NCI-H441; first compound 0.253 µM): 0.758; relative viability (NCI-H441; first compound 0.8 µM): 0.767; relative viability (NCI-H441; first compound 2.53 µM): 0.783; relative viability (NCI-H441; first compound 8 µM): 0.825
